According to patent US20080171659A1, “Insecticidally Coated Fertilizer Solids” (priority 2007, published 2008):

Format: physicochemical
Excerpt: U.S. Pat. No. 5,783,203 mentions acetone as a solvent for imidacloprid. […] Using a 6 wt % imidacloprid in acetone would mean applying 1.67 wt % of the solution on the fertilizer based on the combined weight of the fertilizer and the solution to achieve a product with 0.10 wt % imidacloprid. This would be very difficult to achieve a dry product. Fertilizer products with 0.2 wt % and 0.5 wt % imidacloprid would require 3.33 wt % and 8.33 wt % respectively of the imidacloprid solution absorbed onto the fertilizer; concentrations which are not likely feasible in acetone. In addition, acetone is volatile and highly flammable which would make processing very difficult and expensive.

**Q.** With `O=[N+]([O-])NC1=NCCN1Cc1ccc(Cl)nc1` [imidacloprid] as the compound, how does the solubility read?
**A.** less than 7 wt %
